Source: patent US20250170112A1, “ADENOSINE LIGANDS FOR THE TREATMENT OF NEUROLOGICAL DISORDERS” (Lucy Therapeutics, Inc., priority 2022, published 2025)

Assays:
[1] = target: T1, human Adenosine A1 receptor (Homo sapiens, UniProt P30542); experiment: GTPγS scintillation proximity assay, agonist testing; type: biochemical; settings: agonist activity; membrane extracts of CHO-K1 cells expressing recombinant human A1; read-out: A1AR EC50
T1 construct: host or cells: CHO-K1
T1 sequence (P30542 1-326): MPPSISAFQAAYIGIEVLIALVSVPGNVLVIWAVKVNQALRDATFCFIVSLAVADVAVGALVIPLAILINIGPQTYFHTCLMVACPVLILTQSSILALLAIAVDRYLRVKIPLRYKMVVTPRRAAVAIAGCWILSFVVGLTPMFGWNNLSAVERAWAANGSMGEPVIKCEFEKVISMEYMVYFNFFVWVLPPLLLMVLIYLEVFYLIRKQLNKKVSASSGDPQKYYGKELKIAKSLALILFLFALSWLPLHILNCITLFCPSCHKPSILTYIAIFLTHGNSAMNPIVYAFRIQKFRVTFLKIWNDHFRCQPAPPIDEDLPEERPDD
Procedure, shortened: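 Agonist-stimulated [35S]GTPγS binding to membranes of CHO-K1 cells expressing recombinant human A1 receptor, in 20 mM HEPES pH 7.4, 100 mM NaCl, 10 μg/mL saponin, with receptor-optimized MgCl2 and GDP. GTPγ[35S] 0.1 nM final with WGA SPA beads; 1 h at room temperature, then scintillation counting.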

[2] = target: T2, human A2B (Homo sapiens, UniProt P29275); experiment: cAMP HTRF assay for Gs coupled receptor, agonist test; type: cell-based; settings: agonist activity; HEK293 cells expressing recombinant human A2B; read-out: A2BAR EC50
T2 construct: expressed in transfected cells; host or cells: HEK293
T2 sequence (P29275 1-332): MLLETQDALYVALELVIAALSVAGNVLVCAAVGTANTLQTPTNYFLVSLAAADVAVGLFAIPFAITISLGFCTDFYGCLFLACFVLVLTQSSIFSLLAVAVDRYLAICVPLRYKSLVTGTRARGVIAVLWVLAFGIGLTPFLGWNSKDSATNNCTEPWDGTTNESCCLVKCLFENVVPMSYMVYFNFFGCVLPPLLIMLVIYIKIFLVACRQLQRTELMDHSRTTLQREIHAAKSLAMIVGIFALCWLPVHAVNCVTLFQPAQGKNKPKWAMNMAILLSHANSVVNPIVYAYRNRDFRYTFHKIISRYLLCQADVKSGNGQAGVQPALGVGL
Procedure, shortened: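 Recombinant cells were incubated 30 min at room temperature with increasing agonist concentrations. Lysis buffer with cAMP-d2 and anti-cAMP cryptate was added, with 1 h at room temperature before the HTRF fluorescence ratio was read. Reference compounds were run in parallel.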

| EC50 [1] | EC50 [2] | SMILES |
| --- | --- | --- |
| 1.16 nM | 56.7 nM | N#Cc1c(SCc2cccnc2)nc(N2CC(O)C2)c(C#N)c1-c1ccc(OC2COC2)cc1 [Compound 268] |
| > 10000 nM | > 10000 nM | N#Cc1c(N)nc(SCCC(F)(F)F)c(C#N)c1-c1ccc(OC2CCOC2)cc1 (centres unmarked) [Compound 220] |
| 0.75 nM | 118 nM | N#Cc1c(N)nc(SC[C@H]2CCOC2)c(C#N)c1-c1ccc(OC2COC2)cc1 [Compound 225] |
| 124 nM | > 10000 nM | COCCOc1ccc(-c2c(C#N)c(N)nc(SCC3CCOC3)c2C#N)cc1 (centres unmarked) [Compound 36] |
| 3.38 nM | 33.7 nM | CNc1nc(SCc2cccnc2)c(C#N)c(-c2ccc(OC(F)(F)CO)cc2)c1C#N [Compound 260] |
| > 10000 nM | > 10000 nM | CN(C)c1nc(SCc2cccnc2)c(C#N)c(-c2ccc(OC(F)(F)CO)cc2)c1C#N [Compound 254] |
| 1050 nM | 142 nM | N#Cc1c(N)nc(SCc2cccc3[nH]ncc23)c(C#N)c1-c1ccc(OCCO)cc1 [Compound 15] |
| 353 nM | > 10000 nM | N#Cc1c(N)nc(SCC2CCOC2)c(C#N)c1-c1ccc(OC2CCOC2)cc1 (centres unmarked) [Compound 218] |
| > 10000 nM | > 10000 nM | COCCOc1ccc(-c2c(C#N)c(SCc3ncccn3)nc(N3CC(F)C3)c2C#N)cc1 [Compound 251] |
| 52 nM | > 10000 nM | COCCOc1ccc(-c2c(C#N)c(N)nc(SCc3ccncc3)c2C#N)cc1 [Compound 197] |
| 8.6 nM | 0.08 nM | CC(O)COc1ccc(-c2c(C#N)c(N)nc(SCc3cccnc3)c2C#N)cc1 (centres unmarked) [Compound 56, 2-Amino-4-[4-(2-hydroxy-propoxy)phenyl]-6-(3-pyridylmethylsulfanyl)pyridine-3,5-dicarbonitrile] |
| 32.1 nM | > 10000 nM | CN(C)c1nc(SCC2COC2)c(C#N)c(-c2ccc(OC3COC3)cc2)c1C#N [Compound 318] |
| 167 nM | > 10000 nM | N#Cc1c(N)nc(SCC2OCCO2)c(C#N)c1-c1ccc(OC2COC2)cc1 [Compound 304] |
| > 10000 nM | 272 nM | N#Cc1c(N)nc(SCC2CCCOC2)c(C#N)c1-c1ccc(OCCO)cc1 (centres unmarked) [Compound 13] |
| > 10000 nM | 255 nM | CNCCSc1nc(N)c(C#N)c(-c2ccc(OCCO)cc2)c1C#N [Compound 128] |
| > 10000 nM | > 10000 nM | COCCOc1ccc(-c2c(C#N)c(SCc3cccnn3)nc(N3CC(F)C3)c2C#N)cc1 [Compound 238] |
| > 10000 nM | > 10000 nM | COCCOc1ccc(-c2c(C#N)c(N)nc(SCc3ccc4ccoc4c3)c2C#N)cc1 [Compound 213] |
| 23.9 nM | > 10000 nM | COCCOc1ccc(-c2c(C#N)c(SCc3cccnc3)nc(N3CC(F)C3)c2C#N)cc1 [Compound 277] |
| > 10000 nM | 42.6 nM | Cc1nc(SCCC(F)(F)F)c(C#N)c(-c2ccc(OCCO)cc2)c1C#N [Compound 48] |
| 57 nM | 18 nM | N#Cc1c(N)nc(SCCO)c(C#N)c1-c1ccc(OCCO)cc1 [Compound 177] |
| 121 nM | 6 nM | N#Cc1c(N)nc(SCC(N)=O)c(C#N)c1-c1ccc(OCCO)cc1 [Compound 129] |
| 7500 nM | > 10000 nM | CNCCSc1nc(N)c(C#N)c(-c2ccc(OCCOC)cc2)c1C#N [Compound 140] |
| 643 nM | > 10000 nM | CNC(=O)CSc1nc(N2CCC2)c(C#N)c(-c2ccc(OCCOC)cc2)c1C#N [Compound 78] |
| 350 nM | ≥ 10000 nM | COCCOc1ccc(-c2c(C#N)c(SCC3COC3)nc(N3CCC3)c2C#N)cc1 [Compound 62] |
| > 10000 nM | > 10000 nM | COCCOc1ccc(-c2c(C#N)c(N)nc(SCc3nccc4[nH]ccc34)c2C#N)cc1 [Compound 217] |
| 3.5 nM | > 10000 nM | N#Cc1c(N)nc(SCc2cccc3[nH]ccc23)c(C#N)c1-c1ccc(OC2COC2)cc1 [Compound 22, 2-Amino-6-(1H-indol-4-ylmethylsulfanyl)-4-[4-(oxetan-3-yloxy)phenyl]pyridine-3,5-dicarbonitrile] |
| 12.5 nM | > 10000 nM | N#Cc1c(SCc2cccnc2)nc(N2CC(O)C2)c(C#N)c1-c1ccc(OCCOC(F)F)cc1 [Compound 265] |
| 33.2 nM | > 10000 nM | COCCOc1ccc(-c2c(C#N)c(SCc3ccccn3)nc(N3CC(F)C3)c2C#N)cc1 [Compound 250] |
| 22 nM | > 10000 nM | CC1(CSc2nc(N)c(C#N)c(-c3ccc(OC4COC4)cc3)c2C#N)COC1 [Compound 226] |
| 31 nM | > 10000 nM | COCCOc1ccc(-c2c(C#N)c(SCc3cccnc3)nc(N3CCC3)c2C#N)cc1 [Compound 115] |

| SMILES | EC50 [1] | EC50 [2] |
| --- | --- | --- |
| N#Cc1c(N)nc(SCc2cccnc2)c(C#N)c1-c1ccc(O[C@H]2C[C@@H](O)C2)cc1 [Compound 296, 2-Amino-4-(4-((1s,3s)-3-hydroxycyclobutoxy)phenyl)-6-((pyridin-3-ylmethyl)thio)pyridine-3,5-dicarbonitrile] | 20.6 nM | 2.47 nM |
